The values that follow come from PubChem BioAssay (NCI).

Test systems include 786-0 renal; COLO 205 colon; DMS 114 small cell lung; HOP-92 NSCLC; HT29 colon; LXFL 529 NSCLC; MALME-3M melanoma; MDA-N; SK-MEL-5 melanoma; SR leukemia; TK-10 renal.
What all share (assay): growth of human tumour cells (NCI), 48 h

Where “and” joins values, the source holds several entries; their conditions need not be identical. Equal values may be shown once.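 Results reflect a 48-hour exposure of cells in 96-well plates to compound at five concentrations. The concentration for 50% growth inhibition is given as GI50. TGI is the concentration that stops growth completely.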 Some results are limits rather than exact numbers.

`CSc1nc(NC2OC(COC(C)=O)C(OC(C)=O)C(OC(C)=O)C2OC(C)=O)c(N=CC=Nc2c(NC3OC(COC(C)=O)C(OC(C)=O)C(OC(C)=O)C3OC(C)=O)nc(SC)n(C)c2=O)c(=O)n1C` (centres undefined): the GI50 in the experiment on 786-0 renal was 16.7 µM; with COLO 205 colon, over 50 µM; in the experiment with HOP-92 NSCLC, 14.8 µM; in the experiment on HT29 colon, over 50 µM; in the experiment with MALME-3M melanoma, over 50 µM; with SK-MEL-5 melanoma, over 50 µM. Besides, the GI50 in the experiment with SR leukemia is over 50 µM; in the experiment on TK-10 renal, 30.7 µM. The TGI with 786-0 renal was 50 µM and > 80.6 µM; with COLO 205 colon it was over 100 µM; with DMS 114 small cell lung, over 100 µM; with HOP-92 NSCLC, 50 µM and 64.5 µM; in the experiment on HT29 colon it was over 100 µM; in the experiment with LXFL 529 NSCLC, over 100 µM. Also, the TGI in the experiment with MALME-3M melanoma is over 100 µM; in the experiment with MDA-N it was over 100 µM; with SK-MEL-5 melanoma, over 100 µM; with SR leukemia it was over 100 µM; with TK-10 renal, 50 µM and > 97.1 µM.

Consider `Nc1ccn(C2OC(CO)C(O)C2O)c(=O)n1` (centres undefined), for which the GI50 in the experiment with 786-0 renal was 0.396 µM; with HT29 colon it was 2.01 µM; with MALME-3M melanoma, 0.0741 µM; in the experiment on SK-MEL-5 melanoma, 2.89 µM. In addition, the TGI in the experiment on 786-0 renal is > 100 µM and 388 µM and > 500 µM; in the experiment with COLO 205 colon, over 500 µM; in the experiment on DMS 114 small cell lung it was 417 µM; in the experiment with HT29 colon, over 500 µM; with LXFL 529 NSCLC it was over 500 µM; in the experiment on MDA-N, over 500 µM. For the same compound, the TGI with SR leukemia is > 100 µM and > 29.3 µM and 53.7 µM; in the experiment on TK-10 renal it was over 500 µM.

On to `COc1cc2c3c(c1OC)-c1cc4c(cc1CC3(C#N)N(C(=O)c1ccccc1)CC2)OCO4` (centres undefined), for which the TGI with 786-0 renal was 57.7 µM; in the experiment on COLO 205 colon, over 100 µM; in the experiment with DMS 114 small cell lung, over 85.1 µM; with HOP-92 NSCLC, 32.5 µM; in the experiment with HT29 colon, over 100 µM; with LXFL 529 NSCLC it was 56.3 µM. Moreover, the TGI was 97.7 µM with MALME-3M melanoma; over 100 µM in the experiment with MDA-N; over 100 µM in the experiment on SK-MEL-5 melanoma; over 100 µM with SR leukemia; 71 µM in the experiment on TK-10 renal.

As for `COc1ccc2c(c1)c[n+](C)c1c3cc(OC)c(OC)cc3ccc21`, the GI50 in the experiment on 786-0 renal was 2.85 µM; in the experiment with HOP-92 NSCLC, 3.69 µM and 14.6 µM; in the experiment on HT29 colon, 1.01 µM and 3.61 µM; in the experiment with MALME-3M melanoma, 3.71 µM and 12.4 µM; in the experiment on SK-MEL-5 melanoma it was 4.08 µM and 8.31 µM; with TK-10 renal, 2.13 µM and 11.2 µM. For the same compound, the TGI in the experiment on 786-0 renal was 15.9 µM; with COLO 205 colon, 3.5 µM and 2.99 µM; in the experiment with DMS 114 small cell lung it was 7.14 µM; with HOP-92 NSCLC it was 9.98 µM and 35.1 µM; in the experiment on HT29 colon, 2.31 µM and 15.5 µM; with LXFL 529 NSCLC it was 7.25 µM. The TGI with MALME-3M melanoma was 14.9 µM and 26 µM; in the experiment on MDA-N, 3.08 µM and 8.07 µM; with SK-MEL-5 melanoma it was 15.1 µM and 20.2 µM; in the experiment on SR leukemia, 13.2 µM; with TK-10 renal, 5.37 µM and 24 µM.
